Laboratory results from ChEMBL document CHEMBL4765344, “Expanding the anticancer potential of 1,2,3-triazoles via simultaneously targeting Cyclooxygenase-2, 15-lipoxygenase and tumor-associated carbonic anhydrases” (Eur J Med Chem, 2020).
Active and inactive are the calls of the source. The rule behind the calls is not given here.

What was measured:
[1] = target: T1, Prostaglandin G/H synthase 1 (Ovis aries, UniProt P05979); assay: Inhibition of ovine COX1 by colorimetric analysis
T1 sequence (P05979 whole entry): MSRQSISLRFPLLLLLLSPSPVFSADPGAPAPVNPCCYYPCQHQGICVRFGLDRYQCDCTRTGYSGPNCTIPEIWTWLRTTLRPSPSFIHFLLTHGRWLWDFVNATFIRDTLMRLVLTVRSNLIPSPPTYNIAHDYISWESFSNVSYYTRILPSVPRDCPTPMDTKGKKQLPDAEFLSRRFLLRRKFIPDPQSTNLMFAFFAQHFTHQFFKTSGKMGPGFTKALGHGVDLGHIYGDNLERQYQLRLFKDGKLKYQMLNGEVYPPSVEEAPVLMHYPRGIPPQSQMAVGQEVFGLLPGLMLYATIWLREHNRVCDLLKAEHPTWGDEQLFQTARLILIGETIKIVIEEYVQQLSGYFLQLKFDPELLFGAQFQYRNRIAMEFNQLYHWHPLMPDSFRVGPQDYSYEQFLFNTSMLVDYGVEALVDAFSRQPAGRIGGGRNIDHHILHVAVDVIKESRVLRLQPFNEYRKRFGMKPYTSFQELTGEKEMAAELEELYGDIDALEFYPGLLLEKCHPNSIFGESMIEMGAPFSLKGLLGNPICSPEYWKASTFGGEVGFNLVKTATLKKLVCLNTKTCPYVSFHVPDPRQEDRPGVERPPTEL

[2] = Inhibition of soya bean 15-LOX; parameters: species or system Glycine max
Carbonic anhydrase 1 = Carbonic anhydrase 1 (Homo sapiens, UniProt P00915); assay: Inhibition of human CA1 by stopped-flow carbon dioxide hydration assay
Sequence of Carbonic anhydrase 1 (P00915 whole entry): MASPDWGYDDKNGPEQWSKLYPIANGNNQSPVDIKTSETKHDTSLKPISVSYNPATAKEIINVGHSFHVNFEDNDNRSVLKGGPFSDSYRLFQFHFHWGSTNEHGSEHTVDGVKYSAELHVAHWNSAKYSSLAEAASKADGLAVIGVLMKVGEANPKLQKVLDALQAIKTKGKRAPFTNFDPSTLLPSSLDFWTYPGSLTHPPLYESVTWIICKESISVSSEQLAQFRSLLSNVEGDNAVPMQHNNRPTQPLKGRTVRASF

Carbonic anhydrase 9 = Carbonic anhydrase 9 (Homo sapiens, UniProt Q16790); assay: Inhibition of human CA9 by stopped-flow carbon dioxide hydration assay
Carbonic anhydrase 12 = Carbonic anhydrase 12 (Homo sapiens, UniProt O43570); assay: Inhibition of human CA12 by stopped-flow carbon dioxide hydration assay
Sequence of Carbonic anhydrase 12 (O43570 whole entry): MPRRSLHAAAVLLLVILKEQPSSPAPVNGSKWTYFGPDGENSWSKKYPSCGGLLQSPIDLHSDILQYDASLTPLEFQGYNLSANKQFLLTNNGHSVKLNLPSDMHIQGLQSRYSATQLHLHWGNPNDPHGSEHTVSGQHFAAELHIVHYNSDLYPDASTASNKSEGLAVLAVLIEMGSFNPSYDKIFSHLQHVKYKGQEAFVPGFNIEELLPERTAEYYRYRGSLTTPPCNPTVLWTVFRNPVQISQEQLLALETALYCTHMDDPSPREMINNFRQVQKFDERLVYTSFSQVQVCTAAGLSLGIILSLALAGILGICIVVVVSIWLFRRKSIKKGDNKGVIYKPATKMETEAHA

WI-38 = assay: Cytotoxicity against human WI-38 cells assessed as reduction in cell viability after 72 hrs by SRB assay; type: cell-based; conditions: WI-38, 72 h
A549 [3] = assay: Antiproliferative activity against human A549 cells assessed as inhibition of cell growth at 100 microM measured after 72 hrs by SRB assay; type: functional
HepG2 [4] = assay: Antiproliferative activity against human HepG2 cells assessed as inhibition of cell growth at 100 microM measured after 72 hrs by SRB assay; type: functional
MCF7 [5] = assay: Antiproliferative activity against human MCF-7 cells assessed as inhibition of cell growth at 100 microM measured after 72 hrs by SRB assay; type: functional
Carbonic anhydrase 2 = Carbonic anhydrase 2 (Homo sapiens, UniProt P00918); assay: Inhibition of human CA2 by stopped-flow carbon dioxide hydration assay
A549 [6] = assay: Antiproliferative activity against human A549 cells assessed as cell growth inhibition measured after 72 hrs by SRB assay; type: functional, cell-based; conditions: A549, 72 h
HepG2 [7] = assay: Antiproliferative activity against human HepG2 cells assessed as cell growth inhibition measured after 72 hrs by SRB assay; type: functional, cell-based; conditions: HepG2, 72 h
MCF7 [8] = assay: Antiproliferative activity against human MCF-7 cells assessed as cell growth inhibition measured after 72 hrs by SRB assay; type: functional, cell-based; conditions: MCF7, 72 h
HT-29 = assay: Cytotoxicity against human HT-29 cells assessed as reduction in cell viability incubated for 24 hrs by MTS assay; type: functional, cell-based; conditions: HT-29, 24 h
THP-1 = assay: Cytotoxicity against PMA/LPS-challenged human THP1 cells assessed as reduction in cell viability incubated for 24 hrs by MTS assay; type: functional, cell-based; conditions: THP-1, 24 h

Row | IC50 [1] [µM] | IC50 [2] [µM] | Ki (Carbonic anhydrase 1) [µM] | Ki (Carbonic anhydrase 9) [µM] | Ki (Carbonic anhydrase 12) [µM] | Ki (Carbonic anhydrase 2) [µM] | IC50 (A549 [6]) [µM] | IC50 (HepG2 [7]) [µM] | IC50 (MCF7 [8]) [µM] | SMILES | IC50 (WI-38) [µM] | inhibition at 100 µM (A549 [3]) [%] | inhibition (HepG2 [4]) | inhibition at 100 µM (MCF7 [5]) [%] | inhibition at 100 µM (HepG2 [4]) [%] | inhibition (A549 [3]) | IC50 (HT-29) [µM] | IC50 (THP-1) [µM]
1 | 5.8 | 4.72 | 51 | > 100 | > 100 | – | – | – | – | CC(=O)c1nnn(-c2ccc(S(=O)(=O)Nc3nccs3)cc2)c1C | – | – | – | – | – | – | – | –
2 | 13 | 1.51 | 0.0835 | 7.27 | 0.0153 | – | – | – | – | C/C(=N\NC(N)=S)c1nnn(-c2ccc(S(N)(=O)=O)cc2)c1C | 378 | 3.88 | inactive | 36.1 | – | – | – | –
3 | 14.2 | 1.19 | > 100 | > 100 | > 100 | > 100 | 99.3 | 89.5 | – | C/C(=N\Nc1nc(-c2ccc(Cl)cc2)cs1)c1nnn(-c2ccc(S(=O)(=O)Nc3nccs3)cc2)c1C | 468 | 51.1 | – | 39.9 | 56 | – | – | –
4 | 7.6 | 3.65 | 0.073 | 9.12 | 0.0826 | 0.0079 | – | – | – | CC(=O)c1nnn(-c2ccc(S(N)(=O)=O)cc2)c1C | 391 | – | – | 17.7 | 3.61 | inactive | – | –
5 | 10.9 | 1.76 | 0.551 | > 100 | > 100 | – | 73.1 | – | – | C/C(=N\Nc1nc(-c2ccc(Cl)cc2)cs1)c1nnn(-c2ccc(C(=O)O)cc2)c1C | 461 | 67 | – | 40.4 | 1.41 | – | – | –
6 | 7.9 | 5.33 | – | – | – | – | – | – | – | C/C(=N\NC(N)=S)c1nnn(-c2ccc(Cl)cc2)c1C | – | – | – | – | – | – | – | –
7 | 11.6 | 1.65 | > 100 | > 100 | > 100 | – | – | – | – | C/C(=N\NC(N)=S)c1nnn(-c2ccc(C(=O)O)cc2)c1C | 480 | – | inactive | 46.6 | – | inactive | – | –
8 | 11.9 | 1.83 | – | – | – | – | – | – | – | C/C(=N\Nc1nc(-c2ccc(Cl)cc2)cs1)c1nnn(-c2ccc(F)cc2)c1C | 414 | 11.9 | – | 33.5 | 20.7 | – | – | –
9 | 10.9 | 1.98 | > 100 | > 100 | > 100 | > 100 | 27 | 31.1 | 5.32 | Cc1c(-c2nn(-c3ccccc3)cc2/C=N/O)nnn1-c1ccc(F)cc1 | 393 | 92.4 | – | 98.2 | 89 | – | – | –
10 | 13.9 | 1.91 | 18.3 | > 100 | > 100 | 7.71 | – | – | – | Cc1c(-c2nn(-c3ccccc3)cc2/C=N/O)nnn1-c1ccc(S(N)(=O)=O)cc1 | 450 | – | – | 43.5 | 12.5 | inactive | – | –
11 | 5.9 | 4.74 | 0.213 | 4.22 | 0.0198 | 0.0164 | – | – | – | C/C(=N\NC(N)=O)c1nnn(-c2ccc(S(N)(=O)=O)cc2)c1C | 365 | 18.2 | inactive | 5.8 | – | – | – | –
12 | 7.9 | 6.52 | 46.3 | > 100 | > 100 | 6.86 | – | – | – | C/C(=N\NC(N)=O)c1nnn(-c2ccc(S(=O)(=O)Nc3nccs3)cc2)c1C | – | – | – | – | – | – | – | –
13 | 7.9 | 3.65 | – | – | – | – | – | – | – | CC(=O)c1nnn(-c2ccc(Cl)cc2)c1C | – | – | – | – | – | – | – | –
14 | 7.3 | 4.75 | – | – | – | – | – | – | – | CC(=O)c1nnn(-c2ccc(F)cc2)c1C | – | – | – | – | – | – | – | –
15 | 8.4 | 4.72 | – | – | – | – | – | – | – | C/C(=N\NC(N)=O)c1nnn(-c2ccc(F)cc2)c1C | – | – | – | – | – | – | – | –
16 | 6.4 | 5.14 | – | – | – | – | – | – | – | CC(=O)c1nnn(-c2ccc(C(=O)O)cc2)c1C | – | – | – | – | – | – | – | –
17 | 10.3 | 1.69 | > 100 | > 100 | > 100 | – | – | – | – | C/C(=N\NC(N)=S)c1nnn(-c2ccc(S(=O)(=O)Nc3nccs3)cc2)c1C | 458 | 11.3 | – | 20.7 | 22.1 | – | – | –
18 | 5.6 | 6.84 | – | – | – | – | – | – | – | C/C(=N\NC(N)=O)c1nnn(-c2ccc(Cl)cc2)c1C | – | – | – | – | – | – | – | –
19 | 12.9 | 1.47 | > 100 | > 100 | > 100 | > 100 | 55.7 | 26.5 | 22 | Cc1c(-c2nn(-c3ccccc3)cc2/C=N/O)nnn1-c1ccc(Cl)cc1 | 402 | 69.7 | – | 97.8 | 79 | – | – | –
20 | 9.6 | 2.42 | > 100 | > 100 | > 100 | > 100 | – | – | – | C/C(=N\NC(N)=S)c1nnn(-c2ccc(F)cc2)c1C | 406 | – | – | 6.52 | 19.8 | inactive | – | –
21 | – | – | – | – | – | – | 17.5 | 0.36 | 2.56 | Cc1ccc(-c2cc(C(F)(F)F)nn2-c2ccc(S(N)(=O)=O)cc2)cc1 [CELECOXIB] | 433 | 86.2 | – | 89.9 | 77.9 | – | – | –
22 | – | – | – | – | – | – | – | – | – | O=C(O)Cc1ccccc1Nc1c(Cl)cccc1Cl [DICLOFENAC SODIUM] | – | – | – | – | – | – | 137 | 201
23 | 6.9 | 4.51 | – | – | – | – | – | – | – | C/C(=N\NC(N)=O)c1nnn(-c2ccc(C(=O)O)cc2)c1C | – | – | – | – | – | – | – | –

Row | SMILES | IC50 [1] [µM] | IC50 [2] [µM] | Ki (Carbonic anhydrase 1) [µM] | Ki (Carbonic anhydrase 9) [µM] | Ki (Carbonic anhydrase 12) [µM] | Ki (Carbonic anhydrase 2) [µM] | IC50 (A549 [6]) [µM] | IC50 (HepG2 [7]) [µM] | IC50 (MCF7 [8]) [µM] | IC50 (WI-38) [µM] | inhibition at 100 µM (A549 [3]) [%] | inhibition (HepG2 [4]) | inhibition at 100 µM (MCF7 [5]) [%] | inhibition at 100 µM (HepG2 [4]) [%] | inhibition (A549 [3]) | IC50 (HT-29) [µM] | IC50 (THP-1) [µM]
24 | O=c1c(O)c(-c2ccc(O)c(O)c2)oc2cc(O)cc(O)c12 [QUERCETIN] | – | 3.34 | – | – | – | – | – | – | – | – | – | – | – | – | – | – | –
